Test results reported in ChEMBL document CHEMBL4354786, “Prodrug strategies for targeted therapy triggered by reactive oxygen species” (Medchemcomm, 2019).

Test: Drug metabolism in pH 7.5 HEPES buffer assessed as hydrolysis after 24 hrs

Q: For O=C(O)c1ccc(S(=O)(=O)On2c(C(=O)NCc3ccc(-c4ccccc4)cc3)cccc2=O)cc1, which Drug metabolism is on record?
A: Its Drug metabolism is 100%.

Q: With O=C(NCc1ccc(-c2ccccc2)cc1)c1cccc(=O)n1OS(=O)(=O)c1ccccc1 as the molecule, how does the Drug metabolism read?
A: The Drug metabolism was 100%.
